Measurements taken from paper PMC7556816, “Structural and mechanistic analysis of ATPase inhibitors targeting mycobacterial DNA gyrase” (Journal of Antimicrobial Chemotherapy, 2020).
Values after ≈ are worked out from the molar mass of the structure shown. Where two headings read alike, the source gives them in different places.

Legend:
[1] = test system: M. smegmatis 4x03863 Mutant 1; assay: microbe, parasite or virus in culture; type: cell-based; details: Mycolicibacterium smegmatis, read-out: MIC100
[2] = test system: M. smegmatis 4x03863 Mutant 4; assay: microbe, parasite or virus in culture; type: cell-based; details: Mycolicibacterium smegmatis, read-out: MIC100
[3] = test system: M. smegmatis ATCC 19420; assay: Antibacterial testing, broth microdilution (CLSI); type: cell-based, Mycobacterium smegmatis; details: Mycolicibacterium smegmatis
Procedure: (§1) Antibacterial testing was performed for Acinetobacter baumannii NCTC 13420, E. coli ATCC 25922, M. smegmatis ATCC 19420, Pseudomonas aeruginosa ATCC 27853 and Staphylococcus aureus ATCC 29213, using the broth microdilution method under CLSI guidelines[19] (Table 1). The agar dilution method was additionally performed for M. smegmatis under EUCAST guidelines.[20]

[4] = test system: M. smegmatis 4x03863 Mutant 3; assay: microbe, parasite or virus in culture; type: cell-based; details: Mycolicibacterium smegmatis, read-out: MIC100
[5] = test system: E. coli 2x03863 Mutant; assay: microbe, parasite or virus in culture; type: cell-based; details: Escherichia coli, read-out: MIC100
[6] = test system: E. coli ATCC 25922; assay: Antibacterial testing, broth microdilution (CLSI); type: cell-based; details: Escherichia coli
Procedure: as §1

[7] = target: T1, M. tuberculosis gyrase (Mycobacterium tuberculosis, UniProt P9WG45); assay: DNA cleavage assay (cleavage complex stabilisation); type: biochemical; details: 20 nM gyrase, 1% DMSO
T1 construct: Both the GyrB and GyrBA constructs were altered by deleting the N-terminal 40 amino acids; made in house
Procedure: Figure S1. […] DNA cleavage assays were carried out as previously described;^11 these are essentially the same as supercoiling assays, except that the reactions are terminated by the addition of SDS and proteinase K, and incubated for a further 30 mins at 37°C. Samples contained 20 nM gyrase and 1% DMSO, except where indicated, and Moxifloxacin, Redx03863 or Redx04739, as indicated. Agarose gels (1%) were run in the presence of 0.5 µg/mL ethidium bromide. – indicates no gyrase; + and all other lanes contain gyrase. nc = nicked circular DNA; l = linear; cc = closed circular.

[8] = target: T1, M. tuberculosis gyrase; assay: ATP-independent relaxation of supercoiled DNA; type: biochemical; details: absence of ATP
Excerpt: In the presence of FQs, gyrase can cleave DNA due to the cleavage complex being stabilized.[35]

[9] = target: T2, M. tuberculosis GyrBA fusion protein (Mycobacterium tuberculosis, UniProt P9WG45+P9WG47); assay: biochemical
T2 construct: Both the GyrB and GyrBA constructs were altered by deleting the N-terminal 40 amino acids; made in house; host or cells: E. coli Rosetta 2 (pLysS)

[10] = test system: M. smegmatis 4x03863 Mutant 2 (GyrB Gly83Ser)
[11] = test system: A. baumannii NCTC 13420; assay: Antibacterial testing, broth microdilution (CLSI); type: cell-based; details: Acinetobacter baumannii, NCTC13420
Procedure: as §1

[12] = test system: S. aureus ATCC 29213; assay: Antibacterial testing, broth microdilution (CLSI); type: cell-based; details: Staphylococcus aureus, ATCC29213
Procedure: as §1

[13] = test system: P. aeruginosa ATCC 27853; assay: Antibacterial testing, broth microdilution (CLSI); type: cell-based; details: Pseudomonas aeruginosa, ATCC27853
Procedure: as §1

[14] = target: T1, M. tuberculosis gyrase; assay: biochemical; details: 74 nM of each gyrase subunit, 1% DMSO; read-out: IC50 (apparent), gyrase supercoiling
[15] = M. smegmatis ATCC19420 (WT), read-out: MIC100
[16] = E. coli ATCC25922 (WT), read-out: MIC100
[17] = ATCC19420, M. smegmatis ATCC 19420, broth microdilution, read-out: MIC
[18] = GyrBA fusion protein at 200 nM, linear pBR322 DNA 20 μg/mL, read-out: apparent IC50, gyrase ATPase activity
[19] = gyrase 200 nM, IC50 lower than this not determinable, read-out: IC50, gyrase ATPase reaction
[20] = ATCC25922, E. coli ATCC 25922, broth microdilution, read-out: MIC

SMILES	MIC [1]	MIC [2]	MIC [3, 15]	MIC [4]	MIC [5]	MIC [6, 16]	stabilization of the cleavage complex [7]	MIC [3, 17]	inhibition of relaxation of supercoiled DNA [8]	IC50 [9, 18]	IC50 [9, 19]	increase in resistance of mutant strain [10]	MIC [6, 20]	MIC [11]	MIC [12]	MIC [13]	IC50 [14]
NNC(=O)c1ccncc1 [Isoniazid]	32 µg/mL (≈ 233 µM)	32 µg/mL (≈ 233 µM)	32 µg/mL (≈ 233 µM)	16 µg/mL (≈ 117 µM)	–	–	–	–	–	–	–	–	–	–	–	–	–
COc1c(N2C[C@@H]3CCCN[C@@H]3C2)c(F)cc2c(=O)c(C(=O)O)cn(C3CC3)c12 [Moxifloxacin, reference compound]	< 0.125 µg/mL	< 0.125 µg/mL	0.125 µg/mL (≈ 0.311 µM)	< 0.125 µg/mL	0.016 µg/mL (≈ 0.0399 µM)	0.016 µg/mL (≈ 0.0399 µM)	–	–	–	–	–	–	–	–	–	–	–
CNc1cc(F)cc2c1[nH]c1nc(Oc3cnc(C)nc3)nc(N3C[C@@H]4[C@@H](N)[C@@H]4C3)c12 [Redx03863]	0.25 µg/mL (≈ 0.595 µM)	0.25 µg/mL (≈ 0.595 µM)	0.016 µg/mL (≈ 0.0381 µM)	0.125 µg/mL (≈ 0.297 µM)	32 µg/mL (≈ 76.1 µM)	0.016 µg/mL (≈ 0.0381 µM)	did not stabilize the cleavage complex	0.016 µg/mL (≈ 0.0381 µM)	did not inhibit	170 nM	~200 nM	16 fold	0.016 µg/mL (≈ 0.0381 µM)	0.031 µg/mL (≈ 0.0737 µM)	0.125 µg/mL (≈ 0.297 µM)	4 µg/mL (≈ 9.51 µM)	9 nM
CNc1cc(F)cc2c1[nH]c1nc(CNC(=O)c3cnco3)nc(N3CCC(N)C3)c12 (centres unmarked) [Redx04739]	4 µg/mL (≈ 9.42 µM)	2 µg/mL (≈ 4.71 µM)	0.5 µg/mL (≈ 1.18 µM)	4 µg/mL (≈ 9.42 µM)	> 64 µg/mL	8 µg/mL (≈ 18.8 µM)	did not stabilize the cleavage complex	0.25 µg/mL (≈ 0.589 µM)	did not inhibit	210 nM	~200 nM	8 fold	8 µg/mL (≈ 18.8 µM)	64 µg/mL (≈ 151 µM)	8 µg/mL (≈ 18.8 µM)	32 µg/mL (≈ 75.4 µM)	30 nM
CO[C@@H]1[C@@H](OC(N)=O)[C@@H](O)[C@H](Oc2ccc3c(O)c(NC(=O)c4ccc(O)c(CC=C(C)C)c4)c(=O)oc3c2C)OC1(C)C [novobiocin, reference compound]	4 µg/mL (≈ 6.53 µM)	4 µg/mL (≈ 6.53 µM)	2 µg/mL (≈ 3.26 µM)	8 µg/mL (≈ 13.1 µM)	0.5 µg/mL (≈ 0.816 µM)	64 µg/mL (≈ 104 µM)	–	–	–	–	–	–	–	–	–	–	–
